Measured values reported in US20020151581A1, “Glucose and lipid lowering compounds” (priority 1998, published 2002).
Like-named read-outs stand apart in the source and are kept apart here. Marks after values point to notes of the source that are not given here.

Experiments:
[1] = tested on: C57/B16J lean mice; assay: Circulating free fatty acid levels in overnight-fasted normal mice; format: in vivo; conditions: 50 mg/kg daily intraperitoneal for 2 weeks
Description: (§1) Male, C57/B16J lean mice were purchased from Jackson Laboratories, Bar Harbor, Me. Animals were housed and maintained in accordance with NIH guidelines and had free access to water and food ad libitum. Test compounds of the present invention were suspended in 0.25% methylcellulose (w/v in distilled water) and stored at −20° C. in single use aliquots. Animals received a daily dose via the intraperitoneal route of administration for 2 weeks. After the last dose, animals were fasted overnight. On the following morning, a 250 μl blood sample was drawn via the retro-orbital sinus into a tube containing an EDTA-saline solution and centrifuged at 1,200×g for 15 min. The plasma fraction was analyzed for non-esterified free fatty acid content (NEFA) using the NEFA C diagnostic kit (WAKO Chemicals USA, Richmond, Va.), and glycerol with the triglyceride GPO-Trinder diagnostic kit (Sigma) modified for use on a BM Hitachi 911 clinical chemistry analyzer. P-values from a student's t-test were calculated using the Prizm software data analysis program (Graphpad, Sorrento Calif.).

[2] = tested on: KK/Ay mice; assay: Effects in fasted KK/Ay mice (plasma lipids and glucose); format: in vivo; conditions: daily intraperitoneal for 2 weeks
Description: as §1
Male, KK/Ay mice were purchased from Clea Japan USA, Pennington, N.J. At 4 months of age, animals received daily intraperitoneal administration of 2α-benzoyloxy-5,7,8αH-eudesma-4(15), 11(13)-dien-8,12-olide for 2 weeks. As described in Example 10, fasting plasma NEFA values were obtained. In addition, cholesterol and triglycerides were measured using BM reagent assay kits on a BM Hitachi 911 clinical chemistry analyzer. […] Plasma glucose levels were measured using a Boehringer Mannheim reagent assay kits on a Boehringer Mannheim Hitachi 911 clinical chemistry w analyzer.

[3] = tested on: Candida rugosa lipase; assay: Inhibition of Candida rugosa lipase toward emulsified triolein substrate PC/PI; format: biochemical
Description: Recombinant hormone-sensitive lipase protein isolated from a bacterial expression vector was pre-incubated with a compound of the invention (e.g., 100 μM) prior to the addition of substrate, emulsified triolein phosphatidylcholine/phosphatidylinositol (PC/PI), to initiate the reaction. At various time points, aliquots of the reaction were taken, and the level of glycerol used as an index of enzyme activity. Pharmacological specificity is determined by incubating test compound with other mammalian and non-mammalian lipase enzyme systems to assess inhibition of activity. The assay was conducted using triolein concentrations from 42 μM to 835 μM.

[4] = tested on: rabbits; conditions: cited from earlier work

## C=C1C(=O)O[C@@H]2C[C@@]3(C)C[C@@H](OC(=O)c4ccccc4)CC(=C)[C@@H]3C[C@H]12 [2α-benzoyloxy-5,7,8αH-eudesma-4(15),11(13)-dien-8,12-olide]
[1]; vehicle 1.108
  NEFA (fasting plasma): 0.808 mM
[1]; vehicle 36
  Glycerol (fasting plasma): 28^b mg/dl
[1]; vs vehicle
  % reduction NEFA: 27%
[2]
  fasting plasma NEFA: significant reductions
  plasma cholesterol: significant reductions
  plasma glycerol: significant reductions
  plasma triglycerides: significant reductions
[2]; control mice 184±24 mg/dL, p <0.01
  fasting plasma glucose level: 90 ± 29 mg/dL
[3]; emulsified triolein substrate PC/PI
  inhibition of Candida rugosa lipase (in words): did not inhibit enzyme activity
[3]; triolein substrate 42 μM
  % Inhibition (Candida lipase): 40%
  Candida Lipase + test compound (enzyme activity): 3.21
[3]; triolein substrate 83.5 μM
  % Inhibition (Candida lipase): −12%
  Candida Lipase + test compound (enzyme activity): 11.59
[3]; triolein substrate 167 μM
  % Inhibition (Candida lipase): 6.3%
  Candida Lipase + test compound (enzyme activity): 14.14
[3]; triolein substrate 334 μM
  % Inhibition (Candida lipase): 3.6%
  Candida Lipase + test compound (enzyme activity): 22.68
[3]; triolein substrate 501 μM
  % Inhibition (Candida lipase): −1.7%
  Candida Lipase + test compound (enzyme activity): 60.13
[3]; triolein substrate 668 μM
  % Inhibition (Candida lipase): −1.1%
  Candida Lipase + test compound (enzyme activity): 93.59
[3]; triolein substrate 835 μM
  % Inhibition (Candida lipase): 1.0%
  Candida Lipase + test compound (enzyme activity): 89.71

## C=C1C(=O)O[C@@H]2C[C@@]3(C)CCC[C@H](C)C3=C[C@H]12 [alantolactone, 4,7,8αH-eudesma-5(6), 11(13)-dien-8,12-olide]
[4]; moderate dose
  effect on blood glucose: induce hypoglycemia
[4]; rabbit, in vivo
  effect on hyperglycemia induced by food: inhibit hyperglycemia induced by food
[4]; rabbits, high dose
  effect on blood glucose: induce hyperglycemia
